From patent US9988607B2, “Artificial three-dimensional microenvironment niche culture and methods of using the same” (priority 2008, dated 2018)

Key:
Type in all cases: cell-based, human
HDF cells = test: ViPS pluripotency factor replacement: chemical induction of iPS colonies in 3D microenvironment niche culture; settings: HDF in 3D ES cell microenvironment niche culture; preliminary
Description: To test the possibility of chemical induction of pluripotency in human dermal fibroblasts, well known compounds affecting these pluripotency factors were substituted for expression of the pluripotency factors from viral expression vectors. Candidate compounds included those that affect the Wnt pathway because activation of this pathway had been reported to be involved in OCT 3/4, Sox-2, and Nanog activation. The initial compounds tested included: BIO (6-bromoindirubin-3′-oxime), a specific pharmacological inhibitor of glycogen synthase kinase known to stimulate Wnt signaling and maintain pluripotency in human and mouse embryonic stem cells (Sato et al., Nat. Med. (2004) 10:55-63); prostaglandin E2 (PGE2), reported to be an activator of Wnt pathway via “cross talk” at the beta-catenin signal level; valproic acid, a histone deacetylase (HDAC) inhibitor, and Wnt pathway activator (Bug et al. (2005) Cancer Res 65:2537-41). […] These compounds were chosen for further experimentation since their mechanism of activity was previously determined and they appeared to activate the pluripotency signal transduction pathway (e.g. Wnt pathway).
Compounds were added to HDF cells grown in 3D ES cell microenvironment niche cultures (prepared as described above in EXAMPLES 1 and 2), to evaluate whether they would rescue iPS phenotype in the absence of individual pluripotency factors introduced retrovirally. ViPS cells, induced with lentiviral transduction of pluripotency factor genes (OCT4, Sox2, Nanog, Klf4) as described by Takahashi et al. ((2007), Cell 131:1-12). Data is presented as the number of colonies with iPS morphology observed per 100,000 host cells.
Stem cell self renewal optimized 3-D hydrogel ES microenvironment niche conditions (as described in EXAMPLEs 1 and 2) were found necessary for chemical induction of iPS state. Pluripotency was not observed when standard tissue culture plates or those coated with Matrigel or methylcellulose were substituted for the 3D microenvironment conditions.

[1] = system: OCT3/4, SOX2, LIN28, KLF4 promoters; test: Promoter-GFP reporter screen of compound library in HDF cells in 3D hyaluronan hydrogel niche culture; settings: for Activation of expression of one or more of the target promoters: GFP fluorescence after 4 days of incubation, normalized to ViPS control; for Optimized Concentration: empirically determined through repeat experiments with a broad range of concentrations
Procedure: (§1) Replicate microspots were prepared in Complete Media and transfected with reporter constructs for genes critically expressed in pluripotent cells. The reporter constructs contained promoter regions of one of the genes listed in Table 6 operably linked to a green fluorescent protein (GFP) coding region in pGlow TOPO TA (Invitrogen).
(§2) Briefly, a transient transfection mixture containing Lipofectamine 2000 (0.4 μl/24 μl total hyaluronan volume, Invitrogen) and promoter-Green Fluorescent Protein (GFP) construct in (500 ng) was added to each microspot.
(§3) Library screening was performed by including dilution series of each compound in mTeSR-1 medium, to HDF cells embedded in 3D hyaluronan hydrogel microenvironment niche culture optimized as described above in EXAMPLES 1 and 2.
(§4) After 4 days of incubation with target compounds, relative fluorescence from expression of the GFP constructs was recorded using a fluorescent microplate reader. Values were normalized to reflect percent fluorescence of control (ViPS) cells.
Compounds that activated expression of one or more of the target promoters were scored as positive.

SOX2 promoter = test: Promoter-GFP reporter screen in HDF cells, SOX2 promoter; settings: FIG. 7
Procedure: as §1, §2, §3, §4

OCT4 promoter = test: Promoter-GFP reporter screen in HDF cells, OCT4 promoter; settings: FIG. 7
Procedure: as §1, §2, §3, §4

O=C1Nc2cc(Br)ccc2/C1=C1/Nc2ccccc2/C1=N\O [D9-6452, 6-bromoindirubin-3′-oxime]
Replacement of virally transduced pluripotency factors (colonies with iPS morphology per 100,000 host cells) (HDF cells): could be used to replace virally transduced pluripotency factors | Activation of expression of one or more of the target promoters [1]: positive | Optimized Concentration [1]: 4 µM

O=C1Nc2ccc([N+](=O)[O-])cc2C1=C1Nc2ccccc2C1=NO [D3-8976, Indirubin-5-nitro-3′-oxime]
Activation of expression of one or more of the target promoters [1]: positive | Optimized Concentration [1]: 4 µM

CCCCC[C@H](O)/C=C/[C@H]1C(=O)C=C[C@@H]1C/C=C\CCCC(=O)O [D9-9811, Prostaglandin J2]
Replacement of virally transduced pluripotency factors (colonies with iPS morphology per 100,000 host cells) (HDF cells): could be used to replace virally transduced pluripotency factors | Activation of expression of one or more of the target promoters [1]: positive | Optimized Concentration [1]: 10 µM

CCCCC[C@H](O)/C=C/[C@H]1[C@H](O)CC(=O)[C@@H]1C/C=C\CCCC(=O)O [D2-6542, Prostaglandin E2]
Replacement of virally transduced pluripotency factors (colonies with iPS morphology per 100,000 host cells) (HDF cells): could be used to replace virally transduced pluripotency factors | Activation of expression of one or more of the target promoters [1]: positive | Optimized Concentration [1]: 10 µM

CCCC(CCC)C(=O)O [D10-8976, Valproic Acid]
Replacement of virally transduced pluripotency factors (colonies with iPS morphology per 100,000 host cells) (HDF cells): could be used to replace virally transduced pluripotency factors | Activation of expression of one or more of the target promoters [1]: positive | Optimized Concentration [1]: 2000 µM | Expression of SOX2 promoter (SOX2 promoter): stimulate expression | Expression of OCT4 promoter (OCT4 promoter): stimulate expression

Cc1cccc(-c2n[nH]cc2-c2ccc3ncccc3n2)n1 [D21-8765, 2-(3-(6-Methylpyridin-2-yl)-1H-pyrazol-4-yl)-1,5-naphthyridine]
Activation of expression of one or more of the target promoters [1]: positive | Optimized Concentration [1]: 25000 µM

Br.Cc1ccc(C(=O)Cn2c3c(sc2=N)CCCC3)cc1 [D12-2234, 1-(4-Methylphenyl)-2-(4,5,6,7-tetrahydro-2-imino-3(2H)-benzothiazolyl)ethanone HBr]
Activation of expression of one or more of the target promoters [1]: positive | Optimized Concentration [1]: 30 µM
